According to ChEMBL document CHEMBL1130307, “Inhibition of Matrix Metalloproteinases: An examination of the S1 pocket” (Bioorg Med Chem Lett, 1997):

Tests used:
[1] = biological target: T1, Stromelysin-1 (Homo sapiens, UniProt P08254)
[2] = biological target: T1, Stromelysin-1; remark: listed apart in the source
[3] = biological target: T2, Matrilysin (Homo sapiens, UniProt P09237)
T2 sequence (P09237 whole entry): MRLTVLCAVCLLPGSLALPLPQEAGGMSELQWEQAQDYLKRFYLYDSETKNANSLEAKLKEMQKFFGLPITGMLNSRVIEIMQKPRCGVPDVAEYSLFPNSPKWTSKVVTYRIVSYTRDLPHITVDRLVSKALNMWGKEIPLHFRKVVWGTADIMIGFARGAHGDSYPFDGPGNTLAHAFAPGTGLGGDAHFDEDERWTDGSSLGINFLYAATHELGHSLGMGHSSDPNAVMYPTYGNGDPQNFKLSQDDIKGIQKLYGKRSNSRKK

[4] = biological target: T3, Interstitial collagenase (Homo sapiens, UniProt P03956)
T3 sequence (P03956 whole entry): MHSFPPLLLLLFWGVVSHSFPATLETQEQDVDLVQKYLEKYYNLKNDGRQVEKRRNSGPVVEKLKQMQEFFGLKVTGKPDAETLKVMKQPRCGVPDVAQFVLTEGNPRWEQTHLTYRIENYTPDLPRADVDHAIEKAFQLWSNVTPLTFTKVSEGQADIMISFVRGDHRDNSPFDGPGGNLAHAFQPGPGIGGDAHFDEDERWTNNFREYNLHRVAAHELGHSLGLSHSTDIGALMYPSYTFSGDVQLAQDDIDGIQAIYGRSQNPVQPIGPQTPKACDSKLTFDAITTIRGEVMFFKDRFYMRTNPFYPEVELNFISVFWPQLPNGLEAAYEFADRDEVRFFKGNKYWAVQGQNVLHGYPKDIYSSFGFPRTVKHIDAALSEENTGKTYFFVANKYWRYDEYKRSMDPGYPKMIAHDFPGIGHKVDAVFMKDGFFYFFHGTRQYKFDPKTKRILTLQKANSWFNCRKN

[5] = biological target: T3, Interstitial collagenase; remark: listed apart in the source

T1 sequence (P08254 whole entry): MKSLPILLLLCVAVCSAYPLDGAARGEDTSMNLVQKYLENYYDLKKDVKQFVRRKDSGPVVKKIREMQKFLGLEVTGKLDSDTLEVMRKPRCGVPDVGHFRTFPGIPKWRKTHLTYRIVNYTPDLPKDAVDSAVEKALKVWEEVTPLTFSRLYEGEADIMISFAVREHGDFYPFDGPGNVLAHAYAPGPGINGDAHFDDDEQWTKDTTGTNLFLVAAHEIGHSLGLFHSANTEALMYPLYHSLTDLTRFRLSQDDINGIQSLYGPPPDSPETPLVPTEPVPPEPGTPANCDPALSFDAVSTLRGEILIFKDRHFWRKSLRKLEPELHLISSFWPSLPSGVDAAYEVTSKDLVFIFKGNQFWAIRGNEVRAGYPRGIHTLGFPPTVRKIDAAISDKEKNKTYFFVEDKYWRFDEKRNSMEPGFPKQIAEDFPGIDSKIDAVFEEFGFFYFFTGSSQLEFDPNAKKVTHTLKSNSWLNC

| SMILES | IC50 [1] | IC50 [3] | IC50 [4] | other results |
| --- | --- | --- | --- | --- |
| CCCCCCCCCCCCCCCC[C@H](CC(=O)NO)C(=O)N[C@@H](Cc1ccccc1)C(=O)NC | 300 nM |  |  |  |
| CNC(=O)[C@@H](NC(=O)[C@H](CCCCCCCCCCCCCCO)CC(=O)NO)C(C)(C)C |  | 500 nM |  | IC50 [2]: 50 nM |
| CCCCCCCCCCCCCCC[C@H](CC(=O)O)C(=O)N[C@H](C(=O)NC)C(C)(C)C | 7000 nM |  |  |  |
| CCCCCCCC[C@H](CC(=O)NO)C(=O)N[C@H](C(=O)NC)C(C)(C)C |  | 500 nM |  | IC50 [2]: 100 nM |
| CNC(=O)[C@H](Cc1ccccc1)NC(=O)[C@H](CCCc1ccccc1)CC(=O)NO | 500 nM | 10000 nM | 1000 nM |  |
| CCCCCCCC[C@H](CC(=O)NO)C(=O)N[C@@H](Cc1ccccc1)C(=O)NC | 450 nM | 1000 nM | 150 nM |  |
| CCCCCCCCCCCCC[C@H](CC(=O)NO)C(=O)N[C@H](C(=O)NC)C(C)(C)C |  | 2000 nM |  | IC50 [2]: 60 nM |
| CCCCCCCCC[C@H](CC(=O)O)C(=O)N[C@@H](Cc1ccccc1)C(=O)NC | 20000 nM |  | 7000 nM |  |
| CCCCCCCC[C@H](CC(=O)O)C(=O)N[C@H](C(=O)NC)C(C)(C)C | 30000 nM | 40000 nM |  |  |
| CCCCCCCC[C@H](CC(=O)O)C(=O)N[C@@H](Cc1ccccc1)C(=O)NC | 5000 nM |  |  |  |
| CCCCCCCCCCCCCC[C@H](CC(=O)O)C(=O)N[C@H](C(=O)NC)C(C)(C)C | 4000 nM |  |  |  |
| CCCCCC[C@H](CC(=O)NO)C(=O)N[C@@H](Cc1ccccc1)C(=O)NC | 80 nM | 2000 nM | 20 nM |  |
| CCCCCCCCCCCCC[C@H](CC(=O)O)C(=O)N[C@H](C(=O)NC)C(C)(C)C | 2000 nM |  |  |  |
| CCCCCCC[C@H](CC(=O)O)C(=O)N[C@@H](Cc1ccccc1)C(=O)NC |  |  | 7000 nM |  |
| CCCCCCCCCCCCCCCC[C@H](CC(=O)NO)C(=O)N[C@H](C(=O)NC)C(C)(C)C |  |  |  | IC50 [2]: 90 nM |
| CCCCCCCCC[C@H](CC(=O)NO)C(=O)N[C@H](C(=O)NC)C(C)(C)C |  |  |  | IC50 [5]: 375 nM |
| CCCCCCCCCCCCCCCC[C@H](CC(=O)O)C(=O)N[C@H](C(=O)NC)C(C)(C)C |  |  |  | IC50 [2]: 10000 nM |
| CCCCCCCCCCCC[C@H](CC(=O)NO)C(=O)N[C@@H](Cc1ccccc1)C(=O)NC | 40 nM |  | 50000 nM |  |
| CCCCCCCCCCCCCC[C@H](CC(=O)NO)C(=O)N[C@@H](Cc1ccccc1)C(=O)NC | 80 nM |  |  |  |
| CCCCCCCCCC[C@H](CC(=O)NO)C(=O)N[C@@H](Cc1ccccc1)C(=O)NC | 1000 nM | 2000 nM | 20 nM |  |
| CCCCCCCCCCCCCCCC[C@H](CC(=O)O)C(=O)N[C@@H](Cc1ccccc1)C(=O)NC | 50000 nM |  |  |  |
| CCCCCCCCCCCCCC[C@H](CC(=O)NO)C(=O)N[C@H](C(=O)NC)C(C)(C)C |  |  |  | IC50 [2]: 70 nM |
| CCCCCCCCC[C@H](CC(=O)NO)C(=O)N[C@@H](Cc1ccccc1)C(=O)NC | 30 nM | 3000 nM | 500 nM |  |
| CCCCCC[C@H](CC(=O)O)C(=O)N[C@@H](Cc1ccccc1)C(=O)NC |  |  | 20000 nM |  |
| CCCCCCC[C@H](CC(=O)NO)C(=O)N[C@@H](Cc1ccccc1)C(=O)NC | 40 nM | 2000 nM | 400 nM |  |
| CNC(=O)[C@H](Cc1ccccc1)NC(=O)[C@H](CC(C)C)[C@H](CSc1cccs1)C(=O)NO [BATIMASTAT] |  | 6 nM |  |  |
